3 molecules from patent US20210355105A1, “REGULATOR OF NITROGEN-CONTAINING HETEROAROMATIC DERIVATIVES, PREPARATION METHOD THEREFOR AND USE THEREOF” (Jiangsu Hansoh Pharmaceutical Group Co., Ltd., priority 2018, published 2021) can be followed below.

The structures appear in SMILES notation.

One data set deals with NCI-H358 cells. Description: Proliferation inhibition of NCI-H358 cells (CellTiter-Glo). The data set is classed as cell-based. The settings on record: Homo sapiens, NCI-H358, 72 h; 3 days incubation. As to the method:
Experimental method: 3000 cells (90 μL of cell suspension) were inoculated to each well of a 96-well cell culture plate (Corning, #3610). The culture plate was incubated in an incubator overnight (37° C., 5% CO2). On the next day, 10 μL of gradient dilutions of the test compound solution (the final DMSO content was 0.2%, V/V, the final concentration of the reaction system ranged from 10 μM to 4.5 nM) was added to each well of the culture plate. At the same time, full activity control (compound only with DMSO) and full inhibition control (no cells) were set up on the reaction plate. The culture plate was incubated in the incubator for 3 days (37° C., 5% CO2).
After completion of the incubation, 50 μL of CellTiter-Glo reagent was added to each well of the cell culture plate, which was left to stand at room temperature for 10 minutes. The chemiluminescence signal value was measured in the Synergy H1 full-function microplate reader (BioTek). […] The IC50 value of the test compounds was calculated by fitting the percentage inhibition rate and data of eight concentrations to a four-parameter nonlinear logic formula with GraphPad prism.
The IC50 value was calculated by fitting the data of different concentrations and corresponding percentage inhibition rates to a four-parameter nonlinear logic formula with GraphPad prism.

Data set [1] deals with human pancreatic cancer cell MiaPaca 2 xenograft. The data set can be described thus: Tumor inhibition test on MiaPaca 2 xenograft model. To be noted: 6 mg/kg QD × 3 w, intragastric. It is filed as in vivo, Balb/c nude mice. The procedure: Balb/c nude mice were used as test animals. In vivo pharmacodynamic test was carried out on human pancreatic cancer cell MiaPaca 2 xenograft (CDX) model to evaluate the anti-tumor effect of the test compounds.
MiaPaca 2 cells were taken from the cell bank and thawed. The cells were added to the DMEM medium (containing 10% FBS, 1% Glu and 1% P/S), and incubated in the CO2 incubator (the temperature of the incubator was 37° C., and the CO2 concentration was 5%). After the cells covered 80-90% of the bottom of the culture flask, the cells were passaged. After passage, the cells continued to be incubated in the CO2 incubator. The process was repeated until the number of cells met the inoculation requirement of the in vivo pharmacodynamic test. The cells in logarithmic growth phase were collected, and counted by the automatic cell counter. According to the counting results, the cells were resuspended with PBS and Matrigel (volume ratio: 1:1) to obtain a cell suspension (density: 8×10^7/ml), which was placed in an ice box for later use.
Female Balb/c nude mice (6-8 weeks old, body weight: about 18-22 grams) were used as test animals. The mice were maintained in an environment free of special pathogens and in a single ventilated cage (five mice per cage). All cages, bedding and water were disinfected before use. All animals had free access to standard certified commercial laboratory animal diets. The nude mice were marked with a disposable universal ear tag for rats and mice before the test. The skin of the inoculation site was disinfected with 75% medical alcohol before the inoculation. Each mouse was inoculated with 0.1 ml of MiaPaca 2 tumor cells (containing 8*10^6 cells) subcutaneously on the right back. When the average tumor volume reached 100 to 200 mm^3, administration was carried out. The test compounds were administered intragastrically daily. The tumor volume (mm^3) was measured with the vernier caliper twice a week. The tumor volume calculation formula: V=0.5*D*d*d, wherein D and d represent the long diameter and short diameter of the tumor, respectively. The anti-tumor efficacy was determined by dividing the average tumor increase volume of the compound-treated animals by the average tumor increase volume of the untreated animals. Tumor growth inhibition rate calculation formula: […]
All animals were euthanized after the experiment.

A further data set has as its target T1, hERG potassium channel (Homo sapiens, UniProt Q12809).
T1 construct: expressed in transfected cells; host or cells: CHO-hERG cells
Description: Inhibitory activity on hERG potassium channel (Qpatch, CHO-hERG cells). It is filed as cell-based. The settings on record: six concentrations up to 40 μM, read-out: hERG (inhibitory effect on hERG current). The procedure:
8.1.1 CHO-hERG cells were cultured in a 175 cm^2 culture flask. When the cells were grown to a density of 60 to 80%, the culture solution was removed, and the cells were washed once with 7 mL of PBS, and then 3 mL of Detachin was added for digestion of the cells.
8.1.2 After the digestion was complete, the cells were neutralized by adding 7 mL of the culture solution and then centrifuged. The supernatant was removed, and then 5 mL of the culture solution was added for resuspension to ensure a cell density of 2-5×10^6 cells/mL.
The single-cell high-impedance sealing and whole-cell pattern formation processes were both completed automatically by the Qpatch instrument. After the whole-cell recording pattern was obtained, the cells were clamped at −80 millivolts. A pre-voltage of −50 millivolts was applied for 50 milliseconds prior to the application of a depolarizing stimulus of +40 millivolts for 5 seconds, and then the cells were repolarized to −50 millivolts and maintained for 5 seconds, and then returned back to −80 millivolts. This voltage stimulation was applied every 15 seconds, and data were recorded for 2 minutes, and thereafter the extracellular fluid was administered and data were recorded for 5 minutes, and then the administration process was started. The compound was administered from the lowest test concentration, and 2.5 minutes were given for each test concentration. After all the concentrations of the compound were administered, […] Cisapride as a positive control compound was administered. At least three cells (n≥3) were tested for each concentration.
8.4.1 20 mM compound mother solution was diluted with the extracellular fluid. 5 μL of the 20 mM compound mother solution was diluted 500 times to 40 μM by adding 2495 μL of the extracellular fluid, and then 3-fold serial dilutions were performed sequentially in the extracellular fluid containing 0.2% DMSO to obtain a final concentration to be tested.
8.4.2 The highest test concentration was 40 μM, and there were six concentrations in total, i.e., 40, 13.33, 4.44, 1.48, 0.49, and […], respectively.
The experimental data were analyzed by XLFit software.
For orientation: hERG is a cardiac potassium channel; its block is linked to QT prolongation.

For data set [2], the target named is T2, SHP-2 full-length protein (Homo sapiens, UniProt Q06124).
T2 construct: purchased BPS Bioscience 79330
T2 sequence (Q06124 1-593): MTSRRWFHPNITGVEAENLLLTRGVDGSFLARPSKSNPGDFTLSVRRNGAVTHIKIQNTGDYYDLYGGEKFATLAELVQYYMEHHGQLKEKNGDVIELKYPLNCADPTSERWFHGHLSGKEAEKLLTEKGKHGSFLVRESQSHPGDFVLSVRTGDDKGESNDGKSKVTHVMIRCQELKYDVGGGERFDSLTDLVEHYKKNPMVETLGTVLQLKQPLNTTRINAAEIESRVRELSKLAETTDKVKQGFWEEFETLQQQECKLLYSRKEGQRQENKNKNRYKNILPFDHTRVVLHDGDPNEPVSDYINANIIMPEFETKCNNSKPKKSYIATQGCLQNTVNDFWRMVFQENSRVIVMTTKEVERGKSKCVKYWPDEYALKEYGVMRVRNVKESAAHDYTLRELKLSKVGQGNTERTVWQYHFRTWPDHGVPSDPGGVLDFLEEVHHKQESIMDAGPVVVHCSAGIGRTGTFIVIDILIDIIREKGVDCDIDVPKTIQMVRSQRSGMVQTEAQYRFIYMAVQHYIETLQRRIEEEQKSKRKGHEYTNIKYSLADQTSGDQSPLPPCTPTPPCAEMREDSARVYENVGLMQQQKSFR
Description: Inhibition of SHP-2 kinase activity (Homogeneous Full Length SHP-2 Assay Kit). The data set is classed as biochemical. To be noted: relative IC50, full-length SHP-2 with activating peptide. The procedure: The objective of this test is to determine the inhibitory effect of the compounds on SHP-2 full-length protein allosteric activity.
Experimental method: Homogeneous Full Length SHP-2 Assay Kit (BPS Bioscience, #79330) was used to determine the in vitro SHP-2 activity. First, 18 μL of Master Mix was added to a 96-well low adsorption microplate (NUNC, #267342), i.e., the reaction buffer with a final concentration of 1× comprised 0.5 μM SHP-2 activating Peptide and 5 mM DTT. After centrifugation, 5 μL of test compound/DMSO was added to each well (the final DMSO content was 1%, V/V, the test compound was dissolved in DMSO to 1 mM, a three-fold serial dilution was carried out to obtain ten concentrations, the final concentration of the reaction system ranged from 1 μM to 0.05 nM). SHP-2 was diluted in the 1× reaction buffer to a final concentration of 0.06 nM, and the resulting solution was added to the reaction microplate (2 μL per well). Full activity control (compound only with DMSO) and full inhibition control (no SHP-2) were set up on the reaction plate. After centrifugation, the reaction mixture was incubated at room temperature for 60 minutes.
After completion of the incubation, 25 μL of Substrate solution, which comprised Substrate with a final concentration of 10 μM and 5 mM DTT, was added to each well. After centrifugation, the reaction mixture was incubated at room temperature for 30 minutes. After completion of the reaction, readings were measured on the Synergy H1 full-function microplate reader (BioTek) (excitation wavelength: 340 nm, emission wavelength: […], gain value: 75).
The IC50 value of the test compounds was calculated by fitting the percentage inhibition rate and data of ten concentrations to a four-parameter nonlinear logic formula with GraphPad prism.

Data set [3] in a line: Pharmacokinetics assay in rats, oral administration. The settings on record: rat; male SD rats, oral 5 mg/kg, plasma. It is filed as in vivo. As to the method: SD rats were used as test animals.
5 g of hydroxyethyl cellulose (HEC, CMC-Na, viscosity: 800-1200 Cps) was dissolved in 1000 mL of purified water, and 10 g of Tween80 was added. The solution was mixed well to form a clear solution.
The solution was shaked well and subjected to ultrasound for 15 minutes to obtain a colorless and clear solution with a concentration of 0.5 mg/mL.
After an overnight fast, male SD rats (3 rats per group) were administrated orally with the test compounds at an administration dose of 5 mg/kg and an administration volume of 10 mL/kg.
0.2 mL of blood was taken from jugular vein before administration and at 0.5 hour, 1.0 hour, 2.0 hours, 4.0 hours, 6.0 hours, 8.0 hours and 24.0 hours after administration. The blood samples were stored in EDTA-2K tubes, and centrifuged for 6 minutes at 6000 rpm, at 4° C. to separate the blood plasma. The plasma samples were stored at −80° C. The rats were fed four hours after administration.

A short description of data set [4]: Pharmacokinetics assay in mice, oral administration. The data set is classed as in vivo. The settings on record: mouse; male Balb/c mice, oral 5 mg/kg, plasma. As to the method: Balb/c mice were used as test animals.
5 g of hydroxyethyl cellulose (HEC, CMC-Na, viscosity: 800-1200 Cps) was dissolved in 1000 mL of purified water, and 10 g of Tween80 was added. The solution was mixed well to form a clear solution. […] The solution was subjected to ultrasound for 10 minutes to obtain a colorless and clear solution with a concentration of 0.5 mg/mL.
After an overnight fast, male Balb/c mice were administrated orally with the test compounds at an administration dose of 5 mg/kg and an administration volume of 10 mL/kg.
Blood was taken before administration and at 0.25 hour, 0.5 hour, 1 hour, 2 hours, 4 hours, 6 hours, 8 hours and 24 hours after administration. The blood samples were stored in EDTA-2K tubes, and centrifuged for 6 minutes at 6000 rpm, at 4° C. to separate the blood plasma. The plasma samples were stored at −80° C. The mice were fed four hours after administration.

T1 sequence (Q12809 whole entry): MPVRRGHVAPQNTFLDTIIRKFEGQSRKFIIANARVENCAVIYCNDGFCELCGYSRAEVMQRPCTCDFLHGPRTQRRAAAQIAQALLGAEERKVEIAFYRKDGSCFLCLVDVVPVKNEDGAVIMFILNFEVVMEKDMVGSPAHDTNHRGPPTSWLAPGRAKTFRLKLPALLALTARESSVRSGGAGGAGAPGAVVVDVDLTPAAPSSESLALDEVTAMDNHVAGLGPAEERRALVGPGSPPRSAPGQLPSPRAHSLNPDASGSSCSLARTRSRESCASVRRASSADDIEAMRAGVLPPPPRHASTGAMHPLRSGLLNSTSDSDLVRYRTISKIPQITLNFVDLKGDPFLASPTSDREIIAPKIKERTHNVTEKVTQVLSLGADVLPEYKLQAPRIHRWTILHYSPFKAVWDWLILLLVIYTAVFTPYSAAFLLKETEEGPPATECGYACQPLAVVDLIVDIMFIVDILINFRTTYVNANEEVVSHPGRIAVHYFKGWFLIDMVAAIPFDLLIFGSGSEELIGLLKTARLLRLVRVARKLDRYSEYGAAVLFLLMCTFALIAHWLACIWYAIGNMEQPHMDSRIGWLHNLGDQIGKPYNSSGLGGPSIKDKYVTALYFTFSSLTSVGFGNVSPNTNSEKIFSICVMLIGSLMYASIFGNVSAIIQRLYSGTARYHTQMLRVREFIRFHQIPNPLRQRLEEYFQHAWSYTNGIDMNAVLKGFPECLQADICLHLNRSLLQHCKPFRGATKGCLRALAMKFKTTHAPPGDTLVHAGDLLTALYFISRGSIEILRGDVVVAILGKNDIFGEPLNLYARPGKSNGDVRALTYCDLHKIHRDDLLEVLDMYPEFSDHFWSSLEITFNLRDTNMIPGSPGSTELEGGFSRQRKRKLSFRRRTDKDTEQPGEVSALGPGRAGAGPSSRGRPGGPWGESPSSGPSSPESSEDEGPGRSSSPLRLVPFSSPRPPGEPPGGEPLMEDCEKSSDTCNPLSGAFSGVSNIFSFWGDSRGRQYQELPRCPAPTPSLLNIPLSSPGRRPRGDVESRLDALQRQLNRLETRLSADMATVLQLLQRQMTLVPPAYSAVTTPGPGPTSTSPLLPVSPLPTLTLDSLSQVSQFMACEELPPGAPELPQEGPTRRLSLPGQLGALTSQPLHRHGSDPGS

In the case of `Nc1nc(N2CCC3(CC=C(C4CC4)[C@H]3N)CC2)cnc1Sc1ccnc(N)c1Cl` [Example 143, (S)-8-(6-amino-5-((2-amino-3-chloropyridin-4-yl)thio)pyrazin-2-yl)-2-cyclopropyl-8-azaspiro[4.5]dec-2-en-1-amine], the IC50 in the data set with NCI-H358 cells was determined as 23.3 nM. In addition, in data set [1], the “Tumor volume (Mean ± SD) Day 0” value is given as 166 ± 27 (168 ± 32) mm^3, the “TGI Day 21” value worked out at 95.64%, the “Tumor volume (Mean ± SD) Day 21” value stood at 196 ± 62 mm^3 and the “ΔT/ΔC Day 21” value was 4.36%. The IC50 on hERG potassium channel is 6.17 µM. Besides, in data set [2], the IC50 was 3.8 nM.

`Cc1nc(Sc2ccnc(N)c2Cl)c(N)nc1N1CCC2(CC1)Cc1ccccc1[C@H]2N` [Example 96, (S)-1′-(6-amino-5-((2-amino-3-chloropyridin-4-yl)thio)-3-methylpyrazin-2-yl)-1,3-dihydrospiro[indene-2,4′-piperidin]-1-amine]: the IC50 with NCI-H358 cells is 13.4 nM. In data set [1], the “Tumor volume (Mean ± SD) Day 0” value was 170 ± 28 (171 ± 25) mm^3, the “TGI Day 21” value came to 97.76%, the “Tumor volume (Mean ± SD) Day 21” value stood at 183 ± 70 mm^3 and the “ΔT/ΔC Day 21” value is on record as 2.24%. The IC50 at hERG potassium channel was determined as 5.24 µM. For the same molecule, the IC50 in data set [2] was found to be 9.28 nM.

What is called AUC(0-inf) is the area under the concentration-time curve extrapolated to infinity. Read a high AUC(0-inf) as more exposure. By Cmax is commonly meant the highest concentration seen after dosing. Usually MRT stands for a mean duration of stay, worked out from the concentration-time curve. As usually defined, the Tmax is the time from dosing to the highest level. A word on the half-life: it is the time in which the quantity being followed falls by half. Read a high half-life as slow loss. `Nc1nc(N2CCC3(CC2)Cc2ncccc2[C@H]3N)c(F)nc1Sc1ccnc(N)c1Cl` [Example 180, (S)-1′-(6-Amino-5-((2-amino-3-chloropyridin-4-yl)thio)-3-fluoropyrazin-2-yl)-5,7-dihydrospiro[cyclopenta[b]pyridine-6,4′-piperidin]-5-amine]: the IC50 in the data set on NCI-H358 cells turned out to be 79.9 nM. In data set [3], the AUC(0-inf) is 6250 ng·h/mL, the Cmax came out at 666 ng/mL, the mean residence time (MRT) is 5.67 h and the Tmax is 1 h. Moreover, the half-life in data set [3] is 247 min. In data set [4], the AUC(0-inf) was 5980 ng·h/mL, the Cmax stood at 996 ng/mL, the MRT came to 5.15 h and the Tmax amounted to 30 min. The half-life in data set [4] was 235 min. The IC50 in data set [2] was found to be 9.29 nM.
